Experimental data: patent US20260345595A1, “NOVEL FLUORENE DERIVATIVE COMPOUND AND USE THEREOF” (JD BIOSCIENCE INC., priority 2022, published 2026)

Experiments:
cancer cells = assay: Growth inhibition of cancer cells, Cell Counting Kit-8; assay type: cell-based; conditions: 24 hours, 0.5% FBS; FIGS. 16 to 20
Procedure: (§1) In order to verify the growth inhibitory effect of Compound 1 on various normal and cancer cell lines, 25 types of cell lines listed in Table 7 below were tested. In detail, each cell was seeded at a density of 2×10^4 cells/well in a 96-well plate and cultured for 24 hours, and then the medium was replaced with a medium comprising 0.5% (for cancer cells) or 10% (for normal cells) FBS, and Compound 1 was treated at various concentrations. 24 hours later, 10 μL of Cell Counting Kit-8 (Dojindo Molecular Technologies) was added, and 1 hour later, absorbance at 480 nm was measured using a microplate reader (TECAN SPARK), and the results are shown in FIGS. 15 to 21.

CT26 colorectal cancer = CT26 colorectal cancer tumor model; assay type: in vivo, nude mice; conditions: 1.0 mg/kg, FIG. 22
Procedure: A colorectal cancer model was established by subcutaneously transplanting CT26 colorectal cancer cell line into nude mice. The colorectal cancer model was divided into two groups: vehicle administration group and Compound 1 administration group. […] Similar to Experimental Example 13, tumor size was calculated before drug administration and on days 3, 7, 10, 14, 18, 22, and 24 after drug administration, and body weight was measured before drug administration and on days 7, 14 and 22 after drug administration, which are shown in FIG. 22.

Mfn2−/− MEF cells = assay: Mitochondrial oxygen consumption rate, Charcot-Marie-Tooth disease model; assay type: cell-based, mouse; conditions: 1 μM, 24 hours, FIG. 13
Procedure: To verify the functional loss due to mutation of MFN2 present in the outer mitochondrial membrane, which is the main cause of Charcot-Marie-Tooth disease, the mitochondrial oxygen consumption rate (OCR) was measured. In detail, Mfn2^+/^+MEF cells (normal cells), which are mouse embryonic fibroblasts expressing Mfn2, and Mfn2/MEF cells not expressing Mfn2 were cultured at a density of 1×10^4 for 24 hours in a Seahorse […] culture dish using a DMEM medium supplemented with 10% FBS and penicillin/streptomycin. The cells were treated with DMSO as a vehicle and Compound 1 (1 μM) and cultured for another 24 hours. The mitochondrial oxygen consumption rate was measured using a Seahorse XFe96 analyzer (Agilent Technologies), and the results are shown in FIG. 13.

[1] = system: HCT-116 colorectal cancer; assay: HCT-116 colorectal cancer tumor model; assay type: in vivo, nude mice; conditions: 0.5 and 1.0 mg/kg
Procedure: A colorectal cancer model was established by subcutaneously transplanting HCT-116 colorectal cancer cell line into nude mice. The colorectal cancer model was divided into the following three groups: Group 1 was administered a vehicle as a control group, Group 2 was administered 0.5 mg/kg of Compound 1, and Group 3 was administered 1.0 mg/kg of Compound 1. The drug was orally administered once a day for a total of 21 times. To evaluate the therapeutic efficacy, the tumor size was measured before drug administration and on days 3, 7, 10, 14, 17, 21, and 24 after drug administration. The tumor size was calculated as follows:
Tumor size (mm^3)=(A×B^2)/2 • wherein A and B represent the tumor long axis and short axis, respectively.
In addition, the body weight was measured before drug administration and on days 7, 14, and 21 after drug administration.

NCI-H295R cells = assay: Cortisol production, Cushing's syndrome cell model, ELISA; assay type: cell-based, human; conditions: 0.1, 0.5 and 1 μM; 8-Br-cAMP 0.5 mM; FIG. 14
Procedure: NCI-H295R cells (ATCC #CRL-2128), which are a human adrenocortical carcinoma cell line, were seeded at a density of 2.5×10^5 cells/well in a 24-well plate. The cells were cultured for 48 hours, and then they were pretreated with Compound 1 (0.1 μM, 0.5 μM, and 1 μM) for 12 hours. Furthermore, to increase cortisol synthesis, the cells were treated with 8-bromoadenosine […] (8-Br-CAMP) at a concentration of 0.5 mM, and then re-treated with Compound 1, and allowed to react for 24 hours. After the reaction, the cell culture medium was collected, and the amount of cortisol produced in the cells was measured using an ELISA kit, and the results are shown in FIG. 14.

[2] = system: GvHD in vivo model in BALB/c mice; assay: Graft-versus-host disease (GvHD) animal model; parameters: species or system mouse; conditions: for production of CD4+IFNg+T cells, mean value: spleen, day 14
Procedure: 5-week-old BALB/c male mice were acclimatized for 1 week and irradiated with 800 cGy of total body irradiation. Then, 5×10^6 bone marrow cells derived from C57BL/6J and 1×10^7 spleen cells were intravenously injected to establish a GvHD in vivo model (positive control). A syngeneic control group was established in the same manner as above, but BALB/c-derived bone marrow cells were selected as the injected bone marrow cells. Compound 1 Daily was established by daily oral gavage of 1 mg/kg of Compound 1 to the GvHD in vivo model. Compound 1 Initial only was established by orally administering 1 mg/kg of Compound 1 to the GvHD in vivo model only for 6 days after model induction. The therapeutic effect of Compound 1 was verified by measuring the change in body weight every 3 days for each control and experimental group established as above, and the results are shown in FIG. 11 and Table 4. On day 14, the production of CD4^+IFNg^+T cells, which is a major factor inducing GvHD, was measured in the spleens isolated from the mice, and the results are shown in FIG. 12 and Table 5.

[3] = system: normal cells (BJ, CHO, Raw264.7, L929); assay: Growth inhibition of normal cells, Cell Counting Kit-8; assay type: cell-based, human (BJ); hamster (CHO); murine (Raw264.7); mouse (L929); conditions: concentrations of up to less than 40 μM, 24 hours
Procedure: as §1

[4] = as above; assay type: cell-based, human (BJ); hamster (CHO); murine (Raw264.7); mouse (L929); conditions: normal cells, concentration of up to less than 40 μM, 10% FBS, FIG. 15
Procedure: as §1

[5] = system: acute kidney ischemic reperfusion (IR) injury in C57BL6J mice; assay: Acute kidney ischemic reperfusion (IR) injury animal model; assay type: in vivo, mouse; conditions: 4 μg/kg and 8 μg/kg, tail vein
Procedure: Vehicle and Compound 1 (4 μg/kg or 8 μg/kg) were administered to 8-week-old male C57BL6J mice via the tail vein 24 hours before, 1 hour before, and 12 hours after ischemic reperfusion (IR) surgery. The surgery was performed by blocking the artery leading to the kidney to induce ischemia for 37 minutes. The blocked artery was released, and 24 hours later, the mice were anesthetized and autopsied. Other part was used to synthesize cDNA, and a kidney damage marker, NGAL was identified by real-time PCR. And serum was separated from the blood, and creatinine, which is a kidney damage marker in the serum, was examined, and the results are shown in FIG. 3.

[6] = versus vehicle-treated IR, FIG. 2

## CC(C(=O)NNc1ccc(F)cc1)n1cc(-c2cc(F)cc3c2-c2ccccc2C3(O)C(F)(F)F)cn1 (centres unmarked) [Compound 1, 2-(4-(2-fluoro-9-hydroxy-9-(trifluoromethyl)-9H-fluoren-4-yl)-1H-pyrazol-1-yl)-N′-(4-fluorophenyl)propanehydrazide]
Cancer cells
  viability of cancer cells (in words): decreased the viability of cancer cells in a concentration-dependent manner
CT26 colorectal cancer
  body weight change: Neither the vehicle administration group nor the compound 1 administration group showed any change in the body weight
CT26 colorectal cancer; p<0.05 versus vehicle
  tumor growth (in words): statistically significantly delayed and inhibited
Mfn2−/− MEF cells
  mitochondrial oxygen consumption rate (OCR): markedly restored to a level comparable to that of normal cells
[1]; oral once a day, 21 times
  body weight change: no significant body weight change
[1]; oral, p<0.05 versus vehicle, FIG. 21
  tumor growth (in words): statistically significant concentration-dependent tumor growth inhibitory effect
NCI-H295R cells
  cortisol production: significantly inhibited by the administration of Compound 1, and this inhibition showed a concentration-dependent tendency
[2]; Daily and Initial only, 1 mg/kg oral, versus control, FIG. 11
  body weight recovery (in words): significantly recovered
[2]; Daily and Initial only, 1 mg/kg oral, versus control, FIG. 12
  production of allogeneic CD4+IFNg+T cells (in words): significantly reduced
[2]; Daily, 1 mg/kg oral gavage
  production of CD4+IFNg+T cells, mean value: 10.28
[2]; Initial only (6 days), 1 mg/kg oral
  production of CD4+IFNg+T cells, mean value: 13.04
[3]
  toxicity on normal cells: does not exhibit toxicity on normal cells
[4]
  viability at 24 h: ≥ 70%
[5]; kidney, real-time PCR, p<0.01 versus IR+Vehicle, FIG. 3
  NGAL RNA expression: significantly reduced
[5]; p<0.01 versus IR+Vehicle, FIG. 3
  serum creatinine: significantly reduced
[5]; [6]
  apoptosis (TUNEL staining) of kidney tissue: significant reduction in the apoptosis
  renal tubular tissue damage (H&E staining): significant reduction in the renal tubular tissue damage
